Source: ChEMBL document CHEMBL1201862, “PubChem BioAssay data set” (2004)
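The compound was tested at five concentrations on cells cultured in 96-well plates, with a 48-hour exposure period. GI50: concentration for 50% inhibition of growth.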 Activity calls are given as the source filed them. No stated cut-off is given here; in the data, active = GI50 up to about 1.1 µM and inactive = higher.

What was measured:
Assay in all cases: DTP human tumour cell line panel, 48 h
786-0 = test system: 786-0
A498 = test system: A498
A549 = test system: A549
ACHN = test system: ACHN
BT-549 = test system: BT-549
CAKI-1 = test system: CAKI-1
CCRF-CEM = test system: CCRF-CEM
COLO 205 = test system: COLO 205
DU-145 = test system: DU-145
EKVX = test system: EKVX
HCC 2998 = test system: HCC 2998
HCT-116 = test system: HCT-116
HCT-15 = test system: HCT-15
HOP-62 = test system: HOP-62
HT-29 = test system: HT-29
Hs-578T = test system: Hs-578T
K562 = test system: K562
KM12 = test system: KM12
M14 = test system: M14
MCF7 = test system: MCF7
MDA-MB-231 = test system: MDA-MB-231
MDA-MB-435 = test system: MDA-MB-435
MDA-N = test system: MDA-N
MOLT-4 = test system: MOLT-4
Malme-3M = test system: Malme-3M
NCI-H226 = test system: NCI-H226
NCI-H23 = test system: NCI-H23
NCI-H460 = test system: NCI-H460
NCI/ADR-RES = test system: NCI/ADR-RES
OVCAR-3 = test system: OVCAR-3
OVCAR-4 = test system: OVCAR-4
OVCAR-5 = test system: OVCAR-5
OVCAR-8 = test system: OVCAR-8
PC-3 = test system: PC-3
RPMI-8226 = test system: RPMI-8226
SF-268 = test system: SF-268
SF-295 = test system: SF-295
SF-539 = test system: SF-539
SK-MEL-28 = test system: SK-MEL-28
SK-MEL-2 = test system: SK-MEL-2
SK-OV-3 = test system: SK-OV-3
SN12C = test system: SN12C
SNB-19 = test system: SNB-19
SNB-75 = test system: SNB-75
SW-620 = test system: SW-620
T47D = test system: T47D
U-251 = test system: U-251
UACC-257 = test system: UACC-257
UACC-62 = test system: UACC-62
UO-31 = test system: UO-31

With CCOc1ccc2c(c1)/C(=C(\C(Cl)=C(Cl)Cl)[N+](=O)[O-])N2 the GI50 (786-0) was > 100 µM (inactive), the GI50 (A498) was > 100 µM (inactive) and the GI50 (A549) was > 100 µM (inactive). For the same compound, the GI50 (ACHN) was > 100 µM (inactive), the GI50 (BT-549) was 28.2 µM (inactive) and the GI50 (CAKI-1) was > 100 µM (inactive). The GI50 (CCRF-CEM) was 47.9 µM (inactive), the GI50 (COLO 205) was > 100 µM (inactive) and the GI50 (DU-145) was > 100 µM (inactive). The GI50 (EKVX) was 37.6 µM (inactive), the GI50 (HCC 2998) was > 100 µM (inactive) and the GI50 (HCT-116) was > 100 µM (inactive). For the same compound, the GI50 (HCT-15) was over 100 µM, the GI50 (HOP-62) was > 100 µM (inactive) and the GI50 (HT-29) was > 100 µM (inactive). The GI50 (Hs-578T) was > 100 µM (inactive), the GI50 (K562) was 51.6 µM (inactive) and the GI50 (KM12) was > 100 µM (inactive). For the same compound, the GI50 (M14) was > 100 µM (inactive), the GI50 (MCF7) was > 100 µM (inactive) and the GI50 (MDA-MB-231) was > 100 µM (inactive). For the same compound, the GI50 (MDA-MB-435) was > 100 µM (inactive), the GI50 (MDA-N) was > 100 µM (inactive) and the GI50 (MOLT-4) was > 100 µM (inactive). The GI50 (Malme-3M) was > 100 µM (inactive), the GI50 (NCI-H226) was > 100 µM (inactive) and the GI50 (NCI-H23) was > 100 µM (inactive). For the same compound, the GI50 (NCI-H460) was > 100 µM (inactive), the GI50 (NCI/ADR-RES) was > 100 µM (inactive) and the GI50 (OVCAR-3) was > 100 µM (inactive). For the same compound, the GI50 (OVCAR-4) was 33.2 µM (inactive), the GI50 (OVCAR-5) was > 100 µM (inactive) and the GI50 (OVCAR-8) was > 100 µM (inactive). The GI50 (PC-3) was > 100 µM (inactive), the GI50 (RPMI-8226) was 69.3 µM (inactive) and the GI50 (SF-268) was 66.2 µM (inactive). For the same compound, the GI50 (SF-295) was > 100 µM (inactive), the GI50 (SF-539) was > 100 µM (inactive) and the GI50 (SK-MEL-28) was > 100 µM (inactive). For the same compound, the GI50 (SK-MEL-2) was > 100 µM (inactive), the GI50 (SK-OV-3) was > 100 µM (inactive) and the GI50 (SN12C) was > 100 µM (inactive). For the same compound, the GI50 (SNB-19) was > 100 µM (inactive), the GI50 (SNB-75) was > 100 µM (inactive) and the GI50 (SW-620) was > 100 µM (inactive). For the same compound, the GI50 (T47D) was 48.9 µM (inactive), the GI50 (U-251) was > 100 µM (inactive) and the GI50 (UACC-257) was > 100 µM (inactive). The GI50 (UACC-62) was > 100 µM (inactive) and the GI50 (UO-31) was > 100 µM (inactive).
